Measured values taken from PubChem BioAssay AID651659 (Broad Institute, 2012).
Active and inactive are the calls of the source.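 Rule for the calls: active = signal drops, with AC50 within twice each sample's top valid tested dose; inconclusive = flat curve at 30 to 70% inhibition, or poor fit; inactive = signal moves against the expected drop, plus the rest.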

Target: Mitogen-activated protein kinase 3 (Homo sapiens) (UniProt P27361)
Assay: MAPK3 enzymatic activity blockade – biochemical, ADP-Glo luminescence, dry powder, set 2, selectivity assay for Dyrk1A inhibitor NFAT project, dose response (AID 651659)
Conditions: ERK1 kinase, 120 min

Mitogen-activated protein kinase 3 (Homo sapiens), sequence (P27361 whole entry, looked up): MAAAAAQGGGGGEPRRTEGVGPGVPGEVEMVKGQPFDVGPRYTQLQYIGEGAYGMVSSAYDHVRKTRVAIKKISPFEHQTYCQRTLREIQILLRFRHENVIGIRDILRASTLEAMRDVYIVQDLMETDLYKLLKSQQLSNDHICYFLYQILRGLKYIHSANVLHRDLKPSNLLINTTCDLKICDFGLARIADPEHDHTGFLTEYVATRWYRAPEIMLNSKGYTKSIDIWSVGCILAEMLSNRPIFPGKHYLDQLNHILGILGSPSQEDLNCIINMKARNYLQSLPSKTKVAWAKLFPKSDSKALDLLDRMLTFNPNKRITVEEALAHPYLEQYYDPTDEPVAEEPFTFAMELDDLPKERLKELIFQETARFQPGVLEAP

**Q.** `COc1ccc2c(c1)[nH]c1c(C)nccc12` was tested. Which “activity change, negative = inhibition” value (at 10 µM (top of the series)) did it give?
**A.** inactive

**Q.** Which “activity change, negative = inhibition” value (at 10 µM (top of the series)) does the source give for `COc1ccc2nc(NC(=O)C3CCCN(S(=O)(=O)c4cccc5nsnc45)C3)sc2c1` (stereo not given) here?
**A.** inactive

**Q.** With `COc1ccc2nc(NC(=O)C3CCN(S(=O)(=O)c4ccc(C)cc4)CC3)sc2c1` as the compound, how does the “activity change, negative = inhibition” value (at 10 µM (top of the series)) read?
**A.** inactive

**Q.** For `COc1ccc2nc(NC(=O)C3CCN(S(=O)(=O)c4cccnc4)CC3)sc2c1`, which “activity change, negative = inhibition” value (at 10 µM (top of the series)) is on record?
**A.** inactive

**Q.** For `O=C(NCc1ccccc1)c1sc2ccccc2c1Cl`, which “activity change, negative = inhibition” value (at 10 µM (top of the series)) is on record?
**A.** inactive

**Q.** Which “activity change, negative = inhibition” value (at 10 µM (top of the series)) does the source give for `Cc1ccc(S(=O)(=O)N(C)CC(=O)Nc2nc3ccccc3s2)cc1` here?
**A.** inactive

**Q.** Which “activity change, negative = inhibition” value (at 10 µM (top of the series)) does the source give for `Cc1csc(NC(=O)C2CCCN(S(=O)(=O)c3cccc4nonc34)C2)n1` (stereo not given) here?
**A.** inactive

**Q.** How did the “activity change, negative = inhibition” value (at 10 µM (top of the series)) turn out when `Cc1ccccc1S(=O)(=O)Cc1ccc(C(=O)NC(C)c2ccc3c(c2)OCCO3)o1` (stereo not given) was run?
**A.** inactive

**Q.** For `COc1ccc2nc(NC(=O)CN(C)S(=O)(=O)c3ccc(F)cc3)sc2c1`, which “activity change, negative = inhibition” value (at 10 µM (top of the series)) is on record?
**A.** inactive

**Q.** For `CCOc1ccc2nc(NC(=O)COc3ccc(Cl)c(OC)c3)sc2c1`, which “activity change, negative = inhibition” value (at 10 µM (top of the series)) is on record?
**A.** inactive

**Q.** Which “activity change, negative = inhibition” value (at 10 µM (top of the series)) does the source give for `COc1ccc2c(Cl)c(C(N)=O)sc2c1` here?
**A.** inactive

**Q.** For `COc1ccc(S(=O)(=O)N2CCCC(C(=O)Nc3nc4ccccc4s3)C2)cc1` (stereo not given), which “activity change, negative = inhibition” value (at 10 µM (top of the series)) is on record?
**A.** inactive

**Q.** With `COc1ccc2nc(NC(=O)C3CCN(S(=O)(=O)c4cccc5nsnc45)CC3)sc2c1` as the compound, how does the “activity change, negative = inhibition” value (at 10 µM (top of the series)) read?
**A.** inactive

**Q.** `O=C(NCc1ccco1)c1sc2ccccc2c1Cl` was tested. Which “activity change, negative = inhibition” value (at 10 µM (top of the series)) did it give?
**A.** inactive

**Q.** For `COc1ccc(OC)c(C2=Nn3c(nnc3-c3ccccn3)SC2)c1`, which “activity change, negative = inhibition” value (at 10 µM (top of the series)) is on record?
**A.** inactive

**Q.** Which “activity change, negative = inhibition” value (at 10 µM (top of the series)) does the source give for `CN(CC(=O)Nc1nc2ccc(Cl)cc2s1)S(=O)(=O)c1ccc(Cl)cc1` here?
**A.** inactive

**Q.** Which “activity change, negative = inhibition” value (at 10 µM (top of the series)) does the source give for `COc1ccc2c(Cl)c(C(=O)NCc3cccnc3)sc2c1` here?
**A.** inactive

**Q.** Which “activity change, negative = inhibition” value (at 10 µM (top of the series)) does the source give for `Cc1cccc2sc(NC(=O)CN(C)S(=O)(=O)c3ccc(Cl)cc3)nc12` here?
**A.** inactive

**Q.** With `COc1ccc(NC(=O)C2CCCN(S(=O)(=O)c3cccc4nonc34)C2)cc1` (stereo not given) as the compound, how does the “activity change, negative = inhibition” value (at 10 µM (top of the series)) read?
**A.** inactive

**Q.** `Cc1ccc(S(=O)(=O)N(C)CC(=O)Nc2nc3ccc(Cl)cc3s2)cc1C` was tested. Which “activity change, negative = inhibition” value (at 10 µM (top of the series)) did it give?
**A.** inactive

**Q.** `C=CCn1cnc2scc(-c3ccc(OC)cc3)c2c1=O` was tested. Which “activity change, negative = inhibition” value (at 10 µM (top of the series)) did it give?
**A.** inactive

**Q.** How did the “activity change, negative = inhibition” value (at 10 µM (top of the series)) turn out when `Cc1sc(NC(=O)CSCc2ccccc2)nc1-c1ccccc1` was run?
**A.** inactive

**Q.** For `CCOc1ccc2nc(NC(=O)C3CCCN(S(=O)(=O)c4cccc5cccnc45)C3)sc2c1` (stereo not given), which “activity change, negative = inhibition” value (at 10 µM (top of the series)) is on record?
**A.** inactive

**Q.** Which “activity change, negative = inhibition” value (at 10 µM (top of the series)) does the source give for `COc1ccc(OC)c(CNC(=O)c2sc3ccccc3c2Cl)c1` here?
**A.** inactive

**Q.** With `CC(C)n1cnc2cc(NCc3cccc4ccccc34)ccc21` as the compound, how does the “activity change, negative = inhibition” value (at 1.1 µM (top of the series)) read?
**A.** inactive

**Q.** For `CCCCN(c1nc2ccccc2s1)S(=O)(=O)c1ccc(Cl)cc1`, which “activity change, negative = inhibition” value (at 10 µM (top of the series)) is on record?
**A.** inactive

**Q.** Which “activity change, negative = inhibition” value (at 10 µM (top of the series)) does the source give for `COc1ccc2c(Cl)c(C(=O)NCc3ccccc3)sc2c1` here?
**A.** inactive

**Q.** How did the “activity change, negative = inhibition” value (at 10 µM (top of the series)) turn out when `COc1cccc(C2=Nn3c(nnc3-c3ccccc3)SC2)c1` was run?
**A.** inactive

**Q.** With `COc1ccc2nc(NC(=O)C3CCCN(S(=O)(=O)c4cccc5nonc45)C3)sc2c1` (stereo not given) as the compound, how does the “activity change, negative = inhibition” value (at 10 µM (top of the series)) read?
**A.** inactive

**Q.** With `COc1ccc(OC)c(C2=Nn3c(nnc3-c3ccccc3)SC2)c1` as the compound, how does the “activity change, negative = inhibition” value (at 10 µM (top of the series)) read?
**A.** inactive

**Q.** How did the “activity change, negative = inhibition” value (at 10 µM (top of the series)) turn out when `COc1ccc(C2=Nn3c(nnc3-c3ccncc3)SC2)cc1` was run?
**A.** inactive

**Q.** Which “activity change, negative = inhibition” value (at 10 µM (top of the series)) does the source give for `COc1ccc(C2=Nn3c(nnc3-c3cccnc3)SC2)cc1` here?
**A.** inactive

**Q.** How did the “activity change, negative = inhibition” value (at 10 µM (top of the series)) turn out when `CN(CC(=O)Nc1nccs1)S(=O)(=O)c1ccc(Cl)cc1` was run?
**A.** inactive

**Q.** With `CN(CC(=O)Nc1nc2ccccc2s1)S(=O)(=O)c1ccccc1` as the compound, how does the “activity change, negative = inhibition” value (at 10 µM (top of the series)) read?
**A.** inactive

**Q.** With `COc1ccc(OC)c(C2=Nn3c(nnc3-c3ccncc3)SC2)c1` as the compound, how does the “activity change, negative = inhibition” value (at 10 µM (top of the series)) read?
**A.** inactive

**Q.** Which AC50 does the source give for `CN(CC(=O)Nc1nc2ccc(F)cc2s1)S(=O)(=O)c1ccc(Cl)cc1` here?
**A.** > 20 µM (inactive)

**Q.** Which AC50 does the source give for `CN(CC(=O)Nc1nc2ccc(Cl)cc2s1)S(=O)(=O)c1ccc(C#N)cc1` here?
**A.** 5.91 µM

**Q.** With `COc1ccc(C2=Nn3c(nnc3-c3cccnc3)SC2)cc1OC` as the compound, how does the “activity change, negative = inhibition” value (at 10 µM (top of the series)) read?
**A.** inactive

**Q.** For `COc1ccc2nc(NC(=O)C3CCN(S(=O)(=O)c4cccc5nonc45)CC3)sc2c1`, which “activity change, negative = inhibition” value (at 10 µM (top of the series)) is on record?
**A.** inactive

**Q.** How did the “activity change, negative = inhibition” value (at 10 µM (top of the series)) turn out when `COc1ccc2nc(NC(=O)C3CCCN(S(=O)(=O)c4cccc5cccnc45)C3)sc2c1` (stereo not given) was run?
**A.** inactive

**Q.** With `COc1ccc2c(Cl)c(C(=O)NC(C)C)sc2c1` as the compound, how does the “activity change, negative = inhibition” value (at 10 µM (top of the series)) read?
**A.** inactive

**Q.** How did the AC50 turn out when `COc1ccc(-c2csc(NC(=O)CSCC(=O)N3CCCC3)n2)cc1` was run?
**A.** > 20 µM (inactive)

**Q.** Which “activity change, negative = inhibition” value (at 10 µM (top of the series)) does the source give for `CN(CC(=O)Nc1nc2ccccc2s1)S(=O)(=O)c1ccc(Cl)cc1` here?
**A.** inactive

**Q.** `Clc1ccc(CSc2nc(Nc3ccc4c(c3)OCO4)c3ccccc3n2)cc1` was tested. Which “activity change, negative = inhibition” value (at 10 µM (top of the series)) did it give?
**A.** inactive

**Q.** With `COc1ccc(CNC(=O)c2sc3ccccc3c2Cl)cc1` as the compound, how does the “activity change, negative = inhibition” value (at 10 µM (top of the series)) read?
**A.** inactive
